According to ChEMBL document CHEMBL5303573, “Mapping human microbiome drug metabolism by gut bacteria and their genes” (Nature, 2019):

How the values were obtained:
[1] = The drug is tested on Clostridium symbiosum strain: ATCC14940 for biotransformation. The drug concentrations were measured before and after a 12-h incubation by liquid-chromatography-coupled mass spectrometry (LC–MS); details: 2 µM
[2] = The drug is tested on Dorea formicigenerans strain: ATCC27755 for biotransformation. The drug concentrations were measured before and after a 12-h incubation by liquid-chromatography-coupled mass spectrometry (LC–MS); details: 2 µM
[3] = parabacteroides distasonis, 12 h, 2 µM
Description: The drug is tested on Parabacteroides distasonis strain: ATCC8503 for biotransformation. The drug concentrations were measured before and after a 12-h incubation by liquid-chromatography-coupled mass spectrometry (LC–MS)

[4] = The drug is tested on Eggerthella lenta strain: ATCC25559 for biotransformation. The drug concentrations were measured before and after a 12-h incubation by liquid-chromatography-coupled mass spectrometry (LC–MS); details: 2 µM
[5] = The drug is tested on Providencia stuartii strain: ATCC25827 for biotransformation. The drug concentrations were measured before and after a 12-h incubation by liquid-chromatography-coupled mass spectrometry (LC–MS); details: 2 µM
[6] = The drug is tested on Bacteroides cellulosilyticus strain: DSM14838 for biotransformation. The drug concentrations were measured before and after a 12-h incubation by liquid-chromatography-coupled mass spectrometry (LC–MS); details: 2 µM

SMILES: OCCN(CCO)c1nc(N2CCCCC2)c2nc(N(CCO)CCO)nc(N3CCCCC3)c2n1 [DIPYRIDAMOLE]
- Bacterial Biotransformation [1]: Compound NOT metabolized
- Bacterial Biotransformation [2]: Compound NOT metabolized
- Bacterial Biotransformation [3]: Compound NOT metabolized
- Bacterial Biotransformation [4]: Compound NOT metabolized
- Bacterial Biotransformation [5]: Compound NOT metabolized

SMILES: Cc1ccccc1C(OCCN(C)C)c1ccccc1.O=C(O)CC(O)(CC(=O)O)C(=O)O (stereo not drawn) [ORPHENADRINE CITRATE]
- Bacterial Biotransformation [1]: Compound NOT metabolized
- Bacterial Biotransformation [2]: Compound NOT metabolized
- Bacterial Biotransformation [6]: Compound NOT metabolized
- Bacterial Biotransformation [3]: Compound NOT metabolized
- Bacterial Biotransformation [5]: Compound NOT metabolized

SMILES: Fc1ccc([C@@H]2CCNC[C@H]2COc2ccc3c(c2)OCO3)cc1 [PAROXETINE]
- Bacterial Biotransformation [1]: Compound NOT metabolized
- Bacterial Biotransformation [2]: Compound NOT metabolized
- Bacterial Biotransformation [6]: Compound metabolized
- Bacterial Biotransformation [3]: Compound NOT metabolized
- Bacterial Biotransformation [5]: Compound NOT metabolized

SMILES: COC(=O)C1=C(C)NC(C)=C(C(=O)OC(C)C)C1c1cccc2nonc12 (stereo not drawn) [ISRADIPINE]
- Bacterial Biotransformation [1]: Compound NOT metabolized
- Bacterial Biotransformation [2]: Compound NOT metabolized
- Bacterial Biotransformation [3]: Compound NOT metabolized
- Bacterial Biotransformation [4]: Compound NOT metabolized
- Bacterial Biotransformation [5]: Compound NOT metabolized

SMILES: CC(C)[C@H]1CC[C@H](C(=O)N[C@H](Cc2ccccc2)C(=O)O)CC1 [NATEGLINIDE]
- Bacterial Biotransformation [1]: Compound NOT metabolized
- Bacterial Biotransformation [2]: Compound NOT metabolized
- Bacterial Biotransformation [3]: Compound NOT metabolized
- Bacterial Biotransformation [5]: Compound NOT metabolized

SMILES: CCN(CC)C(C)CN1c2ccccc2Sc2ccccc21 (stereo not drawn) [ETHOPROPAZINE]
- Bacterial Biotransformation [1]: Compound NOT metabolized
- Bacterial Biotransformation [2]: Compound NOT metabolized
- Bacterial Biotransformation [6]: Compound NOT metabolized
- Bacterial Biotransformation [3]: Compound metabolized
- Bacterial Biotransformation [5]: Compound metabolized

SMILES: Br.COc1ccc2c(c1)[C@]13CCCC[C@@H]1[C@H](C2)N(C)CC3.O [DEXTROMETHORPHAN HYDROBROMIDE]
- Bacterial Biotransformation [1]: Compound NOT metabolized
- Bacterial Biotransformation [2]: Compound NOT metabolized
- Bacterial Biotransformation [5]: Compound NOT metabolized

SMILES: Nc1nc(N)nc(-c2cc(Cl)ccc2Cl)n1.O=C(O)/C=C\C(=O)O [IRSOGLADINE MALEATE]
- Bacterial Biotransformation [1]: Compound NOT metabolized
- Bacterial Biotransformation [2]: Compound NOT metabolized
- Bacterial Biotransformation [6]: Compound NOT metabolized
- Bacterial Biotransformation [5]: Compound NOT metabolized

SMILES: COc1ccc(Cc2nccc3cc(OC)c(OC)cc23)cc1OC [PAPAVERINE]
- Bacterial Biotransformation [1]: Compound NOT metabolized
- Bacterial Biotransformation [2]: Compound NOT metabolized
- Bacterial Biotransformation [4]: Compound NOT metabolized
- Bacterial Biotransformation [5]: Compound NOT metabolized

SMILES: COc1ccc2c3c1O[C@H]1C[C@@H](O)C=C[C@@]31CCN(C)C2 [GALANTAMINE]
- Bacterial Biotransformation [1]: Compound NOT metabolized
- Bacterial Biotransformation [2]: Compound NOT metabolized
- Bacterial Biotransformation [6]: Compound NOT metabolized

SMILES: Nc1nnc(-c2cccc(Cl)c2Cl)c(N)n1 [LAMOTRIGINE]
- Bacterial Biotransformation [1]: Compound NOT metabolized
- Bacterial Biotransformation [2]: Compound NOT metabolized
- Bacterial Biotransformation [5]: Compound NOT metabolized

SMILES: O=C1[C@H](CC[C@H](O)c2ccc(F)cc2)[C@@H](c2ccc(O)cc2)N1c1ccc(F)cc1 [EZETIMIBE]
- Bacterial Biotransformation [1]: Compound NOT metabolized
- Bacterial Biotransformation [2]: Compound NOT metabolized
- Bacterial Biotransformation [6]: Compound NOT metabolized
- Bacterial Biotransformation [3]: Compound NOT metabolized
- Bacterial Biotransformation [5]: Compound NOT metabolized

SMILES: CC(=O)CCCCn1c(=O)c2c(ncn2C)n(C)c1=O [PENTOXIFYLLINE]
- Bacterial Biotransformation [1]: Compound NOT metabolized
- Bacterial Biotransformation [2]: Compound NOT metabolized
- Bacterial Biotransformation [6]: Compound NOT metabolized
- Bacterial Biotransformation [5]: Compound NOT metabolized

SMILES: Cc1ccnc2c1NC(=O)c1cccnc1N2C1CC1 [NEVIRAPINE]
- Bacterial Biotransformation [1]: Compound NOT metabolized
- Bacterial Biotransformation [2]: Compound NOT metabolized
- Bacterial Biotransformation [6]: Compound NOT metabolized
- Bacterial Biotransformation [3]: Compound NOT metabolized
- Bacterial Biotransformation [5]: Compound NOT metabolized

SMILES: CN1CCN2c3ccccc3Cc3ccccc3C2C1 (stereo not drawn) [MIANSERIN]
- Bacterial Biotransformation [1]: Compound NOT metabolized
- Bacterial Biotransformation [2]: Compound NOT metabolized
- Bacterial Biotransformation [6]: Compound NOT metabolized
- Bacterial Biotransformation [5]: Compound NOT metabolized

SMILES: CN(C)CC(c1ccc(O)cc1)C1(O)CCCCC1.O=C(O)CCC(=O)O (stereo not drawn) [DESVENLAFAXINE SUCCINATE]
- Bacterial Biotransformation [1]: Compound NOT metabolized
- Bacterial Biotransformation [2]: Compound NOT metabolized
- Bacterial Biotransformation [3]: Compound NOT metabolized
- Bacterial Biotransformation [4]: Compound NOT metabolized
- Bacterial Biotransformation [5]: Compound NOT metabolized

SMILES: CN(C)CCC=C1c2ccccc2COc2ccccc21 [DOXEPIN]
- Bacterial Biotransformation [1]: Compound NOT metabolized
- Bacterial Biotransformation [2]: Compound NOT metabolized
- Bacterial Biotransformation [6]: Compound NOT metabolized
- Bacterial Biotransformation [5]: Compound NOT metabolized

SMILES: CN1CCOC(c2ccccc2)c2ccccc2C1 (stereo not drawn) [NEFOPAM]
- Bacterial Biotransformation [1]: Compound NOT metabolized
- Bacterial Biotransformation [2]: Compound NOT metabolized
- Bacterial Biotransformation [3]: Compound NOT metabolized
- Bacterial Biotransformation [5]: Compound NOT metabolized

SMILES: O=C(O)CCc1nc(-c2ccccc2)c(-c2ccccc2)o1 [OXAPROZIN]
- Bacterial Biotransformation [1]: Compound NOT metabolized
- Bacterial Biotransformation [2]: Compound NOT metabolized
- Bacterial Biotransformation [6]: Compound NOT metabolized
- Bacterial Biotransformation [3]: Compound metabolized
- Bacterial Biotransformation [5]: Compound NOT metabolized

SMILES: CC(C)c1c(CN(C)C(C)Cc2ccccc2)n(C)n(-c2ccccc2)c1=O (stereo not drawn) [FAMPROFAZONE]
- Bacterial Biotransformation [1]: Compound NOT metabolized
- Bacterial Biotransformation [2]: Compound metabolized
- Bacterial Biotransformation [6]: Compound metabolized
- Bacterial Biotransformation [3]: Compound metabolized
- Bacterial Biotransformation [5]: Compound NOT metabolized

SMILES: COCCCC/C(=N\OCCN)c1ccc(C(F)(F)F)cc1.O=C(O)/C=C\C(=O)O [FLUVOXAMINE MALEATE]
- Bacterial Biotransformation [1]: Compound NOT metabolized
- Bacterial Biotransformation [2]: Compound NOT metabolized
- Bacterial Biotransformation [6]: Compound NOT metabolized
- Bacterial Biotransformation [5]: Compound NOT metabolized

SMILES: O=C(Nc1ccccc1)OCC(CN1CCCCC1)OC(=O)Nc1ccccc1 (stereo not drawn) [DIPERODON]
- Bacterial Biotransformation [1]: Compound NOT metabolized
- Bacterial Biotransformation [2]: Compound NOT metabolized
- Bacterial Biotransformation [5]: Compound NOT metabolized

SMILES: CN1CCc2c(c3ccccc3n2Cc2ccccc2)C1.CN1CCc2c(c3ccccc3n2Cc2ccccc2)C1.O=S(=O)(O)c1cccc2c(S(=O)(=O)O)cccc12
- Bacterial Biotransformation [1]: Compound NOT metabolized
- Bacterial Biotransformation [2]: Compound NOT metabolized
- Bacterial Biotransformation [4]: Compound NOT metabolized
- Bacterial Biotransformation [5]: Compound NOT metabolized

SMILES: O=C1NCC2(CCN(CCc3ccccc3)CC2)O1 [FENSPIRIDE]
- Bacterial Biotransformation [1]: Compound NOT metabolized
- Bacterial Biotransformation [2]: Compound NOT metabolized
- Bacterial Biotransformation [6]: Compound NOT metabolized
- Bacterial Biotransformation [5]: Compound NOT metabolized

SMILES: CN1CCC(OC(c2ccccc2)c2ccccc2)CC1
- Bacterial Biotransformation [1]: Compound NOT metabolized
- Bacterial Biotransformation [2]: Compound NOT metabolized
- Bacterial Biotransformation [5]: Compound NOT metabolized

SMILES: C[C@H]1O[C@@H](O[C@H]2[C@@H](O)C[C@H](O[C@H]3[C@@H](O)C[C@H](O[C@H]4CC[C@@]5(C)[C@H](CC[C@@H]6[C@@H]5C[C@@H](O)[C@]5(C)[C@@H](C7=CC(=O)OC7)CC[C@]65O)C4)O[C@@H]3C)O[C@@H]2C)C[C@H](O)[C@@H]1O [DIGOXIN]
- Bacterial Biotransformation [1]: Compound NOT metabolized
- Bacterial Biotransformation [2]: Compound NOT metabolized
- Bacterial Biotransformation [6]: Compound NOT metabolized
- Bacterial Biotransformation [3]: Compound NOT metabolized
- Bacterial Biotransformation [5]: Compound NOT metabolized

SMILES: CC(C)N(CCC(C(N)=O)(c1ccccc1)c1ccccn1)C(C)C.O=P(O)(O)O (stereo not drawn) [DISOPYRAMIDE PHOSPHATE]
- Bacterial Biotransformation [1]: Compound NOT metabolized
- Bacterial Biotransformation [2]: Compound NOT metabolized
- Bacterial Biotransformation [6]: Compound NOT metabolized
- Bacterial Biotransformation [3]: Compound NOT metabolized
- Bacterial Biotransformation [5]: Compound NOT metabolized

SMILES: CN1C(=O)CC(C)(c2ccccc2)C1=O (stereo not drawn) [METHSUXIMIDE]
- Bacterial Biotransformation [1]: Compound NOT metabolized
- Bacterial Biotransformation [2]: Compound NOT metabolized
- Bacterial Biotransformation [6]: Compound NOT metabolized
